Reference: US9725465B2, “Biaryl acetamide compounds and methods of use thereof” (Ambit Biosciences Corporation, priority 2013, dated 2017)
pIC50, pKd: −log10 of the molar value.

Molecular target: FLT3 kinase (Homo sapiens (Human), UniProt P36888)
Assay: Competition binding assay (Kd), FLT3
Details: competition binding

FLT3 kinase, sequence (P36888 27-993): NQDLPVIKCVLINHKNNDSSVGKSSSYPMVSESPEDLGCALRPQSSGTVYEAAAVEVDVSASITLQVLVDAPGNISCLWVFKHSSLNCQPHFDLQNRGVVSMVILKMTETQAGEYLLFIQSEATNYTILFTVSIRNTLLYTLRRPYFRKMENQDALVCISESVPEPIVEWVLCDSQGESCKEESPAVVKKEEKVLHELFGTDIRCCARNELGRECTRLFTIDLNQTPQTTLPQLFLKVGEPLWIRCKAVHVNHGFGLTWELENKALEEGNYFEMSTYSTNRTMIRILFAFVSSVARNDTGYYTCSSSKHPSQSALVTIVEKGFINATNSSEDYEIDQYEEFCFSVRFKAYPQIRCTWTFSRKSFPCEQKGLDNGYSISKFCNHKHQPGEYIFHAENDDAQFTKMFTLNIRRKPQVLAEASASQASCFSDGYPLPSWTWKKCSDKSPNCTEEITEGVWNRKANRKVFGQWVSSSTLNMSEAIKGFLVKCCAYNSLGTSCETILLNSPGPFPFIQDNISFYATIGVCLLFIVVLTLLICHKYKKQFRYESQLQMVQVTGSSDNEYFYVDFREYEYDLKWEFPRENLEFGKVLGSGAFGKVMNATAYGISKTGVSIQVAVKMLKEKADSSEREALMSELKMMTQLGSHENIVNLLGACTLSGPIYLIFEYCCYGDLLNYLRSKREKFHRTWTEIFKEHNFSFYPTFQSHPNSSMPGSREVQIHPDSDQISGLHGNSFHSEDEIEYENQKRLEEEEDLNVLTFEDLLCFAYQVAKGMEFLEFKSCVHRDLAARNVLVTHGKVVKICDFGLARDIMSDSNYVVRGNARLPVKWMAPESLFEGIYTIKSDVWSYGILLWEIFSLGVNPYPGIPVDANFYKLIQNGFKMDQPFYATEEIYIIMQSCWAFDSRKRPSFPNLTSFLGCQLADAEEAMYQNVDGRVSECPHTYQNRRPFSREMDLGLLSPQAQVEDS

| pKd | Structure (SMILES) |
| --- | --- |
| > 8.30 | COc1cc2nc(-c3ccc(CC(=O)Nc4cc(C5(C(F)(F)F)CC5)on4)c(F)c3)cnc2cc1OCCN1CCO[C@@H](C)C1 [Example 248, 2-[2-fluoro-4-[7-methoxy-6-[2-[(2S)-2-methylmorpholin-4-yl]ethoxy]quinoxalin-2-yl]phenyl]-N-[5-[1-(trifluoromethyl)cyclo-propyl]isoxazol-3-yl]acetamide] |
| > 8.30 | COc1cc2nc(-c3ccc(CC(=O)Nc4cc(C5(C(F)(F)F)CC5)on4)c(F)c3)cnc2cc1OCC(C)(C)O [Example 249, 2-[2-fluoro-4-[6-(2-hydroxy-2-methyl-propoxy)-7-methoxy-quinoxalin-2-yl]phenyl]-N-[5-[1-(trifluoro-methyl)cyclopropyl]isoxazol-3-yl]acetamide] |

Molecular target: KIT kinase (Homo sapiens (Human), UniProt P10721)
Sequence (P10721 26-976): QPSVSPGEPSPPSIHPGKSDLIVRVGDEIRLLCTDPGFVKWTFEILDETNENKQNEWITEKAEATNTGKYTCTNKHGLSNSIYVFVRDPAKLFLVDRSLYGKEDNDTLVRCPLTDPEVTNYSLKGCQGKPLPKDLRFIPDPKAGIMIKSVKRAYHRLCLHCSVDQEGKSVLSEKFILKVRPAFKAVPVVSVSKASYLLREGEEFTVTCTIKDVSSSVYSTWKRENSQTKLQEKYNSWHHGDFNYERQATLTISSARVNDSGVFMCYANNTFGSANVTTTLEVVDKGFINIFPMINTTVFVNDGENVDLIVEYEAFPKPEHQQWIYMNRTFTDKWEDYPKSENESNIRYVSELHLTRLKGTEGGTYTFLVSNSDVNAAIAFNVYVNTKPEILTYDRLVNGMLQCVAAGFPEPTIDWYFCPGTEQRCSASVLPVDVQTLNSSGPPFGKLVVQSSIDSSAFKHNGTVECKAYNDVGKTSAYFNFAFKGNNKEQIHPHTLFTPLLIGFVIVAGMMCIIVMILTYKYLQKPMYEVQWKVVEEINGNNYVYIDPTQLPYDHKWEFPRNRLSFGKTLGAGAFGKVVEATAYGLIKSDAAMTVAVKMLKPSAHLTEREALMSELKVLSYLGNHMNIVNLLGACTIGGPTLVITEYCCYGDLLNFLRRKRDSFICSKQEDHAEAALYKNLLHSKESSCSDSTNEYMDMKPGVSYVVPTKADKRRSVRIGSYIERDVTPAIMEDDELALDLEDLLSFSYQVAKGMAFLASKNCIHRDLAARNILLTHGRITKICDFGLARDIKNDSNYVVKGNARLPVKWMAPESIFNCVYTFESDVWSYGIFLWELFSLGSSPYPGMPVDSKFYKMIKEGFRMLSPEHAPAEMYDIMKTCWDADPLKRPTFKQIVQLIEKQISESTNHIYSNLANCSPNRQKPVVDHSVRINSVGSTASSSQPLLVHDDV
Assay: Competition binding assay (Kd), KIT
Details: competition binding
Method in brief: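 Kinase, as T7 phage fusion or HEK-293-expressed DNA-tagged protein, competed off immobilised ligand beads by test compound (eleven-point threefold dilutions, from 100× DMSO stocks). Eluted kinase quantified by qPCR to derive Kd; DMSO used as control.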

| pKd | Structure (SMILES) |
| --- | --- |
| > 8.30 | COc1cc2nc(-c3ccc(CC(=O)Nc4cc(C5(C(F)(F)F)CC5)on4)c(F)c3)cnc2cc1OCCN1CCO[C@@H](C)C1 [Example 248, 2-[2-fluoro-4-[7-methoxy-6-[2-[(2S)-2-methylmorpholin-4-yl]ethoxy]quinoxalin-2-yl]phenyl]-N-[5-[1-(trifluoromethyl)cyclo-propyl]isoxazol-3-yl]acetamide] |
| > 8.30 | COc1cc2nc(-c3ccc(CC(=O)Nc4cc(C5(C(F)(F)F)CC5)on4)c(F)c3)cnc2cc1OCC(C)(C)O [Example 249, 2-[2-fluoro-4-[6-(2-hydroxy-2-methyl-propoxy)-7-methoxy-quinoxalin-2-yl]phenyl]-N-[5-[1-(trifluoro-methyl)cyclopropyl]isoxazol-3-yl]acetamide] |

Molecular target: FLT3-ITD (Homo sapiens (Human), UniProt P36888, INS600HVDFREYEYD)
Sequence (P36888 other isoform, or with tags, fused parts or gaps limits assumed, stated change not applied): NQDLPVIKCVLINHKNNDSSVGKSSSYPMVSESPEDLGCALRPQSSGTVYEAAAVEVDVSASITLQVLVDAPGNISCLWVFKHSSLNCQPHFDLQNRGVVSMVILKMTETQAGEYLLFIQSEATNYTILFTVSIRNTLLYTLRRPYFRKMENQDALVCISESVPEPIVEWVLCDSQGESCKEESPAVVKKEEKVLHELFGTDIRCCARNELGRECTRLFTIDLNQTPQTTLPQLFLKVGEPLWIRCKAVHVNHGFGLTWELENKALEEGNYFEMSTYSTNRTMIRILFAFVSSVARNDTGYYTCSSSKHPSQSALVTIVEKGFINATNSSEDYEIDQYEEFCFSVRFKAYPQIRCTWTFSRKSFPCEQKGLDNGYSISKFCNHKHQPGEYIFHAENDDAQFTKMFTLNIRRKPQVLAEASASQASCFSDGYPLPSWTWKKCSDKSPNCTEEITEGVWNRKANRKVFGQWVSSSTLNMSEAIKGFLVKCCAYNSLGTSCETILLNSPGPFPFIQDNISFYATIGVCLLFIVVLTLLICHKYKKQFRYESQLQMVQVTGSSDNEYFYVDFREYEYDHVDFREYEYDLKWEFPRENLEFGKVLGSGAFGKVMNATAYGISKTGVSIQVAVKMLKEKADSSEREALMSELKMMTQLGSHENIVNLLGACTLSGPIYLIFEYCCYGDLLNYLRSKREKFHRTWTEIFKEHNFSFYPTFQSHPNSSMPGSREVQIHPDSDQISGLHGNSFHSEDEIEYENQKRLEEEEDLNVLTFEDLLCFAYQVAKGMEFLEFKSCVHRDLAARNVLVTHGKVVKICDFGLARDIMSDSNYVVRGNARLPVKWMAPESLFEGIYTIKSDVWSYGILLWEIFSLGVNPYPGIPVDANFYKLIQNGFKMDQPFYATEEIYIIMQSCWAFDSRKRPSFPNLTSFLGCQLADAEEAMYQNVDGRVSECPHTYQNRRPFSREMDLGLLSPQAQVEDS
Assay: pFLT3 MSD assay, Ba/F3 FLT3-ITD
Type: cell-based
Details: Ba/F3 FLT3-ITD cells, 2 hours, read-out: BaF3-FLT3-ITD pFlt3 IC50

| Structure (SMILES) | pIC50 |
| --- | --- |
| COc1cc2ncc(-c3ccc(CC(=O)Nc4cc(C5(C(F)(F)F)CC5)on4)cc3)nc2cc1OC [Example 1, 2-(4-(6,7-dimethoxyquinoxalin-2-yl)phenyl)-N-(5-(1-(trifluoromethyl)cyclopropyl)isoxazol-3-yl)acetamide] | > 8.00 |
| CC(C)(c1cc(NC(=O)Cc2ccc(-c3cnc4[nH]ccc4c3)cc2)no1)C(F)(F)F [Example 26, 2-(4-(1H-pyrrolo[2,3-b]pyridin-5-yl)phenyl)-N-(5-(1,1,1-trifluoro-2-methylpropan-2-yl)isoxazol-3-yl)acetamide] | > 8.00 |
| O=C(Cc1ccc(-c2cnc3[nH]ccc3c2)cc1F)Nc1cc(C2(C(F)(F)F)CC2)on1 [Example 28, 2-(2-fluoro-4-(1H-pyrrolo[2,3-b]pyridin-5-yl)phenyl)-N-(5-(1-(trifluoromethyl)cyclopropyl)isoxazol-3-yl)acetamide] | > 8.00 |
| O=C(Cc1ccc(-c2cnc3[nH]ccc3n2)cc1F)Nc1cc(C2(C(F)(F)F)CC2)on1 [Example 30, 2-(2-fluoro-4-(5H-pyrrolo[2,3-b]pyrazin-2-yl)phenyl)-N-(5-(1-(trifluoromethyl)cyclopropyl)isoxazol-3-yl)acetamide] | > 8.00 |
| CC(C)(C)c1cc(NC(=O)Cc2ccc(-c3cnc4[nH]ncc4c3)cc2)no1 [Example 31, 2-(4-(1H-pyrazolo[3,4-b]pyridin-5-yl)phenyl)-N-(5-(tert-butyl)isoxazol-3-yl)acetamide] | > 8.00 |
| O=C(Cc1ccc(-c2cnc3[nH]ncc3c2)cc1F)Nc1cc(C2(C(F)(F)F)CC2)on1 [Example 33, 2-(2-fluoro-4-(1H-pyrazolo[3,4-b]pyridin-5-yl)phenyl)-N-(5-(1-(trifluoromethyl)cyclopropyl)isoxazol-3-yl)acetamide] | > 8.00 |
| CC(C)(c1cc(NC(=O)Cc2ccc(-c3cnc4[nH]ncc4c3)cc2F)no1)C(F)(F)F [Example 34, 2-(2-fluoro-4-(1H-pyrazolo[3,4-b]pyridin-5-yl)phenyl)-N-(5-(1,1,1-trifluoro-2-methylpropan-2-yl)isoxazol-3-yl)acetamide] | > 8.00 |

The next lines start with the values.

| pIC50 | Structure (SMILES) |
| --- | --- |
| > 8.00 | CC(C)(C)c1cc(NC(=O)Cc2ccc(-c3cnc4[nH]ccc4c3)cc2)no1 [Example 25, 2-(4-(1H-pyrrolo[2,3-b]pyridin-5-yl)phenyl)-N-(5-(tert-butyl)isoxazol-3-yl)acetamide] |
| > 8.00 | CC(C)(C)c1cc(NC(=O)Cc2ccc(-c3cnc4[nH]ccc4c3)cc2F)no1 [Example 27, N-(5-(tert-butyl)isoxazol-3-yl)-2-(2-fluoro-4-(1H-pyrrolo[2,3-b]pyridin-5-yl)phenyl)acetamide] |
| > 8.00 | CC(C)(c1cc(NC(=O)Cc2ccc(-c3cnc4[nH]ccc4c3)cc2F)no1)C(F)(F)F [Example 29, 2-(2-fluoro-4-(1H-pyrrolo[2,3-b]pyridin-5-yl)phenyl)-N-(5-(1,1,1-trifluoro-2-methylpropan-2-yl)isoxazol-3-yl)acetamide] |
| > 8.00 | CC(C)(C)c1cc(NC(=O)Cc2ccc(-c3cnc4[nH]ncc4c3)cc2F)no1 [Example 32, N-(5-(tert-butyl)isoxazol-3-yl)-2-(2-fluoro-4-(1H-pyrazolo[3,4-b]pyridin-5-yl)phenyl)acetamide] |
